Consider 1 compound from US6455556B2, “Crystal modifications of 1-(2,6-difluorobenzyl)-1H-1,2,3-triazole-4-carboxamide” (Novartis AG, priority 1997, dated 2002).

The nature of the series: dissolution rate in water and gastric fluid. In kind it is physicochemical. The settings on record: compared with modification A or A′.

Each structure is given as a SMILES string.

In the case of `NC(=O)c1cn(Cc2c(F)cccc2F)nn1` [modification B, 1-(2,6-difluorobenzyl)-1H-1,2,3-triazole-4-carboxamide], the “dissolution rate in gastric fluid” value (gastric fluid) is on record as “substantially faster”. Also, where the note is “water”, the “dissolution rate in water” value was “substantially faster”.
